Activity calls are given as the source filed them. The calls are words filed in the database; no cut-off is given here.
Tests used:
Homo sapiens = species: Homo sapiens; experiment: Inhibition of C-terminal His6-tagged human recombinat FTase expressed in Escherichia coli BL21 RIL (DE3) cells using Dansyl-GCVLS peptide and farnesyl pyrophosphate as substrate at 100 uM measured for 15 mins by fluorimetric analysis relative to control
SR = experiment: Cytostatic activity against human SR cells assessed as growth inhibition at 10 uM incubated for 48 hrs by sulforhodamine B assay relative to control; assay type: functional; conditions: for inhibition of growth at 10 µM: read-out: GI
K562 = experiment: Cytostatic activity against human K562 cells assessed as growth inhibition at 10 uM incubated for 48 hrs by sulforhodamine B assay relative to control; assay type: functional; conditions: K562, 48 h, read-out: GI
CCRF-CEM = experiment: Cytostatic activity against human CCRF-CEM cells assessed as growth inhibition at 10 uM incubated for 48 hrs by sulforhodamine B assay relative to control; assay type: functional; conditions: for inhibition of growth at 10 µM: read-out: GI
RPMI-8226 = experiment: Cytostatic activity against human RPMI8226 cells assessed as growth inhibition at 10 uM incubated for 48 hrs by sulforhodamine B assay relative to control; assay type: functional; conditions: for inhibition of growth at 10 µM: RPMI-8226, 48 h, read-out: GI
NCI-H522 = experiment: Cytostatic activity against human NCI-H522 cells assessed as growth inhibition at 10 uM incubated for 48 hrs by sulforhodamine B assay relative to control; assay type: functional; conditions: NCI-H522, 48 h, read-out: GI
KM12 = experiment: Cytostatic activity against human KM12 cells assessed as growth inhibition at 10 uM incubated for 48 hrs by sulforhodamine B assay relative to control; assay type: functional; conditions: for inhibition of growth at 10 µM: KM12, 48 h, read-out: GI
SW-620 [1] = experiment: Cytostatic activity against human SW620 cells assessed as growth inhibition at 10 uM incubated for 48 hrs by sulforhodamine B assay relative to control; assay type: functional; conditions: for inhibition of growth at 10 µM: SW-620, 48 h, read-out: GI
HCT-116 = experiment: Cytostatic activity against human HCT116 cells assessed as growth inhibition at 10 uM incubated for 48 hrs by sulforhodamine B assay relative to control; assay type: functional; conditions: for inhibition of growth at 10 µM: HCT-116, 48 h, read-out: GI
LOX IMVI = experiment: Cytostatic activity against human LOXIMVI cells assessed as growth inhibition at 10 uM incubated for 48 hrs by sulforhodamine B assay relative to control; assay type: functional; conditions: for inhibition of growth at 10 µM: read-out: GI
OVCAR-3 = experiment: Cytostatic activity against human OVCAR3 cells assessed as growth inhibition at 10 uM incubated for 48 hrs by sulforhodamine B assay relative to control; assay type: functional; conditions: for inhibition of growth at 10 µM: OVCAR-3, 48 h, read-out: GI
MCF7 = experiment: Cytostatic activity against human MCF7 cells assessed as growth inhibition at 10 uM incubated for 48 hrs by sulforhodamine B assay relative to control; assay type: functional; conditions: MCF7, 48 h, read-out: GI
[2] = Inhibition of C-terminal His6-tagged human recombinat FTase expressed in Escherichia coli BL21 RIL (DE3) cells using Dansyl-GCVLS peptide and farnesyl pyrophosphate as substrate measured for 15 mins by fluorimetric analysis
SW-620 [3] = experiment: Cytotoxicity against human SW620 cells assessed as growth inhibition of preexisting tumor cells at 10 uM incubated for 48 hrs by sulforhodamine B assay relative to control; assay type: functional; conditions: SW-620, 48 h, read-out: GI

| Compound | inhibition (Homo sapiens) | inhibition of growth at 10 µM (K562) | inhibition of growth at 10 µM (CCRF-CEM) | inhibition of growth at 10 µM (NCI-H522) | inhibition of growth at 10 µM (KM12) | inhibition of growth at 10 µM (SW-620 [1]) | inhibition of growth at 10 µM (HCT-116) | inhibition of growth at 10 µM (LOX IMVI) | inhibition of growth at 10 µM (MCF7) | IC50 [2] | also measured |
| --- | --- | --- | --- | --- | --- | --- | --- | --- | --- | --- | --- |
| O=C(/C=C/c1ccc(Cl)c(Cl)c1)c1cccs1 | 47% | 71.6% | 31.3% | 24.7% | 15.4% | 29.6% | 39.8% | 45.7% | 87.1% |  | inhibition of growth at 10 µM (SR): 78%; inhibition of growth at 10 µM (RPMI-8226): 66.9%; inhibition of growth at 10 µM (OVCAR-3): 6.8% |
| Cn1cncc1[C@@](N)(c1ccc(Cl)cc1)c1ccc2c(c1)c(-c1cccc(Cl)c1)cc(=O)n2C [TIPIFARNIB] |  |  |  |  |  |  |  |  |  | 0.0079 µM |  |
| O=C(/C=C/c1ccc(Cl)c(Cl)c1)c1ccc(Cl)nc1 | 22% | 25.3% | 15.2% | 17% | 32.4% | 17.6% | 19.3% | 21.9% | 69.8% |  | inhibition of growth at 10 µM (OVCAR-3): 11.2% |
| O=C(/C=C/c1ccc(Cl)nc1)c1ccc(Cl)cc1Cl | 53% | 92.3% | 93% | 61.3% | 23.5% | 100% | 63.3% | 93.5% | 82.9% |  | inhibition of growth at 10 µM (OVCAR-3): 21.5%; inhibition of growth at 10 µM (SW-620 [3]): 33.2% |
| O=C(/C=C/c1ccc(Cl)cc1Cl)c1ccc(Cl)cc1Cl | 69% |  |  |  |  |  |  |  |  | 38.7 µM |  |
| O=C(c1cccs1)[C@H]1[C@H](c2ccc(Cl)cc2Cl)[C@@H](C(=O)c2cccs2)[C@](O)(c2cccs2)C[C@@H]1c1ccc(Cl)cc1Cl | 11% | 16.5% | 22.3% | 18.5% | 4.7% | 12.7% | 21.2% | 3.1% | 18.3% |  | inhibition of growth at 10 µM (SR): 10%; inhibition of growth at 10 µM (RPMI-8226): 26.8%; inhibition of growth at 10 µM (OVCAR-3): 11.5% |
| O=C(CC(CC(=O)c1ccc(Cl)nc1)c1cccs1)c1ccc(Cl)nc1 | 19% |  |  |  |  |  |  |  |  |  |  |
| O=C(/C=C/c1ccc(Cl)nc1)c1cccs1 | 28% | 65.8% | 38.6% | 37.2% | 57.8% | 47.6% | 35.5% | 85% | 84.3% |  | inhibition of growth at 10 µM (OVCAR-3): 45.8% |
| CCOc1ccc([C@]2(O)C[C@H](c3cccs3)[C@@H](C(=O)c3ccc(Cl)nc3)[C@H](c3cccs3)[C@H]2C(=O)c2ccc(Cl)nc2)cn1 | 24% |  |  |  |  |  |  |  |  |  |  |
| O=C(/C=C/c1ccc(Cl)nc1)c1ccc(Cl)c(Cl)c1 | 54% | 48.3% | 26.6% | 45.8% | 44.4% | 40.1% | 55.1% | 37.6% | 66.4% |  | inhibition of growth at 10 µM (OVCAR-3): 43.5% |
| O=C(CC(CC(=O)c1ccc(Cl)nc1)c1ccc(Cl)nc1)c1ccc(Cl)nc1 | 4% |  |  |  |  |  |  |  |  |  |  |
| O=C(/C=C/c1ccc(Cl)cc1Cl)c1ccc(Cl)c(Cl)c1 | 74% | 2.4% |  | 11.4% | 0.3% |  | 13.9% |  | 28.3% | 8.7 µM | inhibition of growth at 10 µM (SR): 2.8%; growth inhibition (GI) (CCRF-CEM): inactive; inhibition of growth at 10 µM (RPMI-8226): 5.4%; growth inhibition (GI) (SW-620 [1]): inactive; growth inhibition (GI) (LOX IMVI): inactive; growth inhibition (GI) (OVCAR-3): inactive |
| O=C(/C=C/c1ccc(Cl)cc1Cl)c1ccc(Cl)nc1 | 39% | 18.9% | 6.5% | 24.2% | 3.6% | 7.9% | 56.6% | 65.1% | 63.4% |  | inhibition of growth at 10 µM (SR): 55.7%; inhibition of growth at 10 µM (RPMI-8226): 8.9%; growth inhibition (GI) (OVCAR-3): inactive |
| O=C(/C=C/c1ccc(Cl)c(Cl)c1)c1ccc(Cl)c(Cl)c1 | 60% | 9.7% | 3.7% | 8.1% |  |  | 6.1% |  | 14.2% | 96.6 µM | inhibition of growth at 10 µM (SR): 6.1%; inhibition of growth at 10 µM (RPMI-8226): 7.2%; growth inhibition (GI) (KM12): inactive; growth inhibition (GI) (SW-620 [1]): inactive; growth inhibition (GI) (LOX IMVI): inactive; growth inhibition (GI) (OVCAR-3): inactive |
| O=C(/C=C/c1cccs1)c1cccs1 | 100% |  |  |  |  |  |  |  |  | 12 µM |  |
| O=C(CC(O)c1cccs1)c1cccs1 (racemic) | 86% |  |  |  |  |  |  |  |  | 0.6 µM |  |
| O=C(CC(CC(=O)c1cccs1)c1ccc(Cl)cc1Cl)c1cccs1 | 0% | 25% | 7.9% | 17.3% | 4.8% | 4.4% | 34.7% | 10.9% | 10.2% |  | inhibition of growth at 10 µM (SR): 9.7%; inhibition of growth at 10 µM (RPMI-8226): 17.3%; growth inhibition (GI) (OVCAR-3): inactive |
| O=C(/C=C/c1ccc(Cl)c(Cl)c1)c1ccc(Cl)cc1Cl | 53% |  |  |  |  |  |  |  |  |  |  |
| O=C(/C=C/c1ccc(Cl)cc1Cl)c1cccs1 | 84% |  |  |  |  |  |  |  |  | 25.8 µM |  |
| CCOc1ccc(C(=O)/C=C/c2cccs2)cn1 | 86% |  |  |  |  |  |  |  |  | 24.9 µM |  |
| CCOC(=O)c1cc(C(=O)/C=C/c2ccc3c(c2)Sc2ccccc2N3C)n2ccccc12 |  |  |  |  |  |  |  |  |  | 0.009 µM |  |
| O=C(/C=C/c1cccs1)c1ccc(Cl)c(Cl)c1 | 98% | 1.7% |  | 8.6% | 2.8% | 5.5% | 2.2% |  | 72.5% | 7.4 µM | growth inhibition (GI) (SR): inactive; growth inhibition (GI) (CCRF-CEM): inactive; growth inhibition (GI) (RPMI-8226): inactive; growth inhibition (GI) (LOX IMVI): inactive; growth inhibition (GI) (OVCAR-3): inactive |
| CCCCCCCCCCCCCC/C(C(=O)O)=C(\C)C(=O)O [CHAETOMELLIC ACID A] | 100% |  |  |  |  |  |  |  |  | 0.18 µM |  |
| O=C(/C=C/c1ccc(Cl)nc1)c1ccc(Cl)nc1 | 26% | 6.1% | 3.1% | 5.3% | 1% |  |  |  | 8.8% |  | growth inhibition (GI) (SW-620 [1]): inactive; growth inhibition (GI) (HCT-116): inactive; growth inhibition (GI) (LOX IMVI): inactive; growth inhibition (GI) (OVCAR-3): inactive |
| O=C(/C=C/c1cccs1)c1ccc(Cl)nc1 |  | 2.9% | 8.6% | 18% |  |  | 8.9% |  | 32.3% |  | inhibition of growth at 10 µM (SR): 17.5%; inhibition of growth at 10 µM (RPMI-8226): 95.8%; growth inhibition (GI) (KM12): inactive; growth inhibition (GI) (SW-620 [1]): inactive; growth inhibition (GI) (LOX IMVI): inactive; growth inhibition (GI) (OVCAR-3): inactive |
| O=C(/C=C/c1cccs1)c1ccc(Cl)cc1Cl | 70% |  |  |  |  |  |  |  |  | 20.8 µM |  |
| O=C(c1cccs1)[C@H]1[C@H](c2cccs2)[C@@H](C(=O)c2cccs2)[C@](O)(c2cccs2)C[C@@H]1c1cccs1 | 2% | 14.5% | 5% | 15.3% | 3.4% |  | 6.1% | 7.8% | 12.2% |  | inhibition of growth at 10 µM (SR): 7.9%; inhibition of growth at 10 µM (RPMI-8226): 17.7%; growth inhibition (GI) (SW-620 [1]): inactive; growth inhibition (GI) (OVCAR-3): inactive |
